# Test results taken from patent US8134015B2, “Compound inhibiting in vivo phosphorous transport and medicine containing the same” (Kyowa Hakko Kirin Co., Ltd., priority 2003, dated 2012).
# Target: T1, rat NaPi-2b (Rattus norvegicus, UniProt Q9JJ09)
# T1 construct: expressed in transfected cells; host or cells: Xenopus oocytes injected with cRNA
# T1 sequence (Q9JJ09 1-695): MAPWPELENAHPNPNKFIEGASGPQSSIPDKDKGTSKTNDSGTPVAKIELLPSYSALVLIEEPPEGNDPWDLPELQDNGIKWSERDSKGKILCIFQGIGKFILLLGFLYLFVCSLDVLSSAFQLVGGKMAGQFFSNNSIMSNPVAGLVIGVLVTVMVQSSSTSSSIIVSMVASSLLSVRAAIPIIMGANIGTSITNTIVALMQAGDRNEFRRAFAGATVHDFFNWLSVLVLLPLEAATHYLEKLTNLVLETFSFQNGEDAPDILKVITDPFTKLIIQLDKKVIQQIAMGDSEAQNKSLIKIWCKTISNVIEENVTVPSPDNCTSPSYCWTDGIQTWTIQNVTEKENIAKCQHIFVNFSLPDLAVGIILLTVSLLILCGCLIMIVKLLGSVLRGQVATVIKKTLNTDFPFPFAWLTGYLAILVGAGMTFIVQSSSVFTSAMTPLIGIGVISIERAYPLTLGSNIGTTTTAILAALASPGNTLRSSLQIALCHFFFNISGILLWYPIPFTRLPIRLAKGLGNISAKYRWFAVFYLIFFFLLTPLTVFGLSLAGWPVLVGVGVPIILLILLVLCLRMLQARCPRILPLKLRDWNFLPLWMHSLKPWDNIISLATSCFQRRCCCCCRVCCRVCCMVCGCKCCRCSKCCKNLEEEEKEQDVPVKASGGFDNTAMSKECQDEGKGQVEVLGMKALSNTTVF
# Experiment: Sodium-dependent phosphate uptake of Xenopus oocytes which expressed NaPi-2b (32P)
# Type: cell-based
# Conditions: Xenopus oocytes expressing rat NaPi-2b, 32P radioactive phosphorus; read-out: IC50 (phosphate uptake inhibitory activity)
# Method in brief: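 Rat small-intestine NaPi-2b cRNA injected into Xenopus oocytes, expressed for 2 days. Sodium-dependent phosphate uptake measured with 32P; % inhibition at 300 and 100 μM taken from the same inhibition curve.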
row,Compound,IC50 [µM]
1,"O=C(Nc1sc2c(c1C(=O)N/N=C/c1ccc(F)cc1)CCCC2)c1cccc(CSCCCO)c1 [Compound 606, N-[3-(4-Fluoro-benzylidene-hydrazinocarbonyl)-4,5,6,7-tetrahydro-benzo[b]thiophen-2-yl]-3-(3-hydroxy-propylsulfanylmethyl)-benzamide]",1.01
2,"O=C(Nc1sc2c(c1C(=O)N/N=C/c1cccc(F)c1)CCCC2)c1cccc(CSCCCO)c1 [Compound 607, N-[3-(3-Fluoro-benzylidene-hydrazinocarbonyl)-4,5,6,7-tetrahydro-benzo[b]thiophen-2-yl]-3-(3-hydroxy-propylsulfanylmethyl)-benzamide]",0.43
3,"O=C(Nc1sc2c(c1C(=O)N/N=C/c1ccc(Cl)c(C(F)(F)F)c1)CCCC2)c1cccc(CSCCCO)c1 [Compound 608, N-[3-(4-Chloro-3-trifluoromethyl-benzylidene-hydrazinocarbonyl)-4,5,6,7-tetrahydro-benzo[b]thiophen-2-yl]-3-(3-hydroxy-propylsulfanylmethyl)-benzamide]",< 0.3
4,"CCN(CC)CCN(C)Cc1cccc(C(=O)Nc2sc3c(c2C(=O)N/N=C/c2ccc(C)c(C)c2)CCCC3)c1 [Compound 609, 3-{[(2-Diethylamino-ethyl)-methyl-amino]-methyl}-N-[3-(3,4-dimethyl-benzylidene-hydrazinocarbonyl)-4,5,6,7-tetrahydro-benzo[b]thiophen-2-yl]-benzamide]",< 0.3
5,"CCN(CC)CCN(C)Cc1cccc(C(=O)Nc2sc3c(c2C(=O)N/N=C/c2ccc(C)cc2)CCCC3)c1 [Compound 610, 3-{[(2-Diethylamino-ethyl)-methyl-amino]-methyl}-N-[3-(4-methyl-benzylidene-hydrazinocarbonyl)-4,5,6,7-tetrahydro-benzo-[b]thiophen-2-yl]-benzamide]",1.82
6,"CCN(CC)CCN(C)Cc1cccc(C(=O)Nc2sc3c(c2C(=O)N/N=C/c2ccc(F)cc2)CCCC3)c1 [Compound 611, 3-{[(2-Diethylamino-ethyl)-methyl-amino]-methyl}-N-[3-(4-fluoro-benzylidene-hydrazinocarbonyl)-4,5,6,7-tetrahydro-benzo-[b]thiophen-2-yl]-benzamide]",2.16
7,"CCN(CC)CCN(C)Cc1cccc(C(=O)Nc2sc3c(c2C(=O)N/N=C/c2cccc(F)c2)CCCC3)c1 [Compound 612, 3-{[(2-Diethylamino-ethyl)-methyl-amino]-methyl}-N-[3-(3-fluoro-benzylidene-hydrazinocarbonyl)-4,5,6,7-tetrahydro-benzo-[b]thiophen-2-yl]-benzamide]",2.34
8,"CCN(CC)CCN(C)Cc1cccc(C(=O)Nc2sc3c(c2C(=O)N/N=C/c2ccc(Cl)c(C(F)(F)F)c2)CCCC3)c1 [Compound 613, N-[3-(4-Chloro-3-trifluoromethyl-benzylidene-hydrazinocarbonyl)-4,5,6,7-tetrahydro-benzo[b]thiophen-2-yl]-3-{[(2-diethylamino-ethyl)-methyl-amino]-methyl}-benzamide]",1.41
9,"CCN(CC)CCN(C)Cc1cccc(C(=O)Nc2sc3c(c2C(=O)N/N=C/c2ccc(OC)cc2)CCCC3)c1 [Compound 614, 3-{[(2-Diethylamino-ethyl)-methyl-amino]-methyl}-N-[3-(4-methoxy-benzylidene-hydrazinocarbonyl)-4,5,6,7-tetrahydro-benzo-[b]thiophen-2-yl]-benzamide]",3.29
10,"Cc1ccc(/C=N/NC(=O)c2c(NC(=O)c3cccc(CN4CCC(N5CCCCC5)CC4)c3)sc3c2CCCC3)cc1C [Compound 615, 3-[1,4′]Bipiperidinyl-1′-ylmethyl-N-[3-(3,4-dimethyl-benzylidene-hydrazinocarbonyl)-4,5,6,7-tetrahydro-benzo[b]thiophen-2-yl]-benzamide]",2.08
11,"Cc1ccc(/C=N/NC(=O)c2c(NC(=O)c3cccc(CN4CCC(N5CCCCC5)CC4)c3)sc3c2CCCC3)cc1 [Compound 616, 3-[1,4′]Bipiperidinyl-1′-ylmethyl-N-[3-(4-methyl-benzylidene-hydrazinocarbonyl)-4,5,6,7-tetrahydro-benzo[b]thiophen-2-yl]-benzamide]",13.9
12,"O=C(Nc1sc2c(c1C(=O)N/N=C/c1ccc(F)cc1)CCCC2)c1cccc(CN2CCC(N3CCCCC3)CC2)c1 [Compound 617, 3-[1,4′]Bipiperidinyl-1′-ylmethyl-N-[3-(4-fluoro-benzylidene-hydrazinocarbonyl)-4,5,6,7-tetrahydro-benzo[b]thiophen-2-yl]-benzamide]",3.68
13,"O=C(Nc1sc2c(c1C(=O)N/N=C/c1cccc(F)c1)CCCC2)c1cccc(CN2CCC(N3CCCCC3)CC2)c1 [Compound 618, 3-[1,4′]Bipiperidinyl-1′-ylmethyl-N-[3-(3-fluoro-benzylidene-hydrazinocarbonyl)-4,5,6,7-tetrahydro-benzo[b]thiophen-2-yl]-benzamide]",4.25
14,"O=C(Nc1sc2c(c1C(=O)N/N=C/c1ccc(Cl)c(C(F)(F)F)c1)CCCC2)c1cccc(CN2CCC(N3CCCCC3)CC2)c1 [Compound 619, 3-[1,4′]Bipiperidinyl-1′-ylmethyl-N-[3-(4-chloro-3-trifluoromethyl-benzylidene-hydrazinocarbonyl)-4,5,6,7-tetrahydro-benzo[b]thiophen-2-yl]-benzamide]",< 3
15,"COc1ccc(/C=N/NC(=O)c2c(NC(=O)c3cccc(CN4CCC(N5CCCCC5)CC4)c3)sc3c2CCCC3)cc1 [Compound 620, 3-[1,4′]Bipiperidinyl-1′-ylmethyl-N-[3-(4-methoxy-benzylidene-hydrazinocarbonyl)-4,5,6,7-tetrahydro-benzo[b]thiophen-2-yl]-benzamide]",3.58
16,"Cc1ccc(/C=N/NC(=O)c2c(NC(=O)c3cccc(CN4CCN(CCO)CC4)c3)sc3c2CCCC3)cc1C [Compound 621, N-[3-(3,4-Dimethyl-benzylidene-hydrazinocarbonyl)-4,5,6,7-tetrahydro-benzo[b]thiophen-2-yl]-3-[4-(2-hydroxy-ethyl)-piperazin-1-ylmethyl]-benzamide]",< 3
17,"Cc1ccc(/C=N/NC(=O)c2c(NC(=O)c3cccc(CN4CCN(CCO)CC4)c3)sc3c2CCCC3)cc1 [Compound 622, 3-[4-(2-Hydroxy-ethyl)-piperazin-1-ylmethyl]-N-[3-(4-methyl-benzylidene-hydrazinocarbonyl)-4,5,6,7-tetrahydro-benzo-[b]thiophen-2-yl]-benzamide]",< 3
18,"O=C(Nc1sc2c(c1C(=O)N/N=C/c1ccc(F)cc1)CCCC2)c1cccc(CN2CCN(CCO)CC2)c1 [Compound 623, N-[3-(4-Fluoro-benzylidene-hydrazinocarbonyl)-4,5,6,7-tetrahydro-benzo[b]thiophen-2-yl]-3-[4-(2-hydroxy-ethyl)-piperazin-1-ylmethyl]-benzamide]",< 3
19,"O=C(Nc1sc2c(c1C(=O)N/N=C/c1cccc(F)c1)CCCC2)c1cccc(CN2CCN(CCO)CC2)c1 [Compound 624, N-[3-(3-Fluoro-benzylidene-hydrazinocarbonyl)-4,5,6,7-tetrahydro-benzo[b]thiophen-2-yl]-3-[4-(2-hydroxy-ethyl)-piperazin-1-ylmethyl]-benzamide]",< 3
20,"O=C(Nc1sc2c(c1C(=O)N/N=C/c1ccc(Cl)c(C(F)(F)F)c1)CCCC2)c1cccc(CN2CCN(CCO)CC2)c1 [Compound 625, N-[3-(4-Chloro-3-trifluoromethyl-benzylidene-hydrazinocarbonyl)-4,5,6,7-tetrahydro-benzo[b]thiophen-2-yl]-3-[4-(2-hydroxy-ethyl)-piperazin-1-ylmethyl]-benzamide]",< 3
21,"COc1ccc(/C=N/NC(=O)c2c(NC(=O)c3cccc(CN4CCN(CCO)CC4)c3)sc3c2CCCC3)cc1 [Compound 626, 3-[4-(2-Hydroxy-ethyl)-piperazin-1-ylmethyl]-N-[3-(4-methoxy-benzylidene-hydrazinocarbonyl)-4,5,6,7-tetrahydro-benzo-[b]thiophen-2-yl]-benzamide]",< 3
22,"O=C(Nc1sc2c(c1C(=O)N/N=C/c1ccc(Cl)c(C(F)(F)F)c1)CCCC2)c1cccc(CN2CCC(CO)CC2)c1 [Compound 643, N-[3-(4-Chloro-3-trifluoromethyl-benzylidene-hydrazinocarbonyl)-4,5,6,7-tetrahydro-benzo[b]thiophen-2-yl]-3-(4-hydroxymethyl-piperidin-1-ylmethyl)-benzamide]",3.68
23,"COc1ccc(/C=N/NC(=O)c2c(NC(=O)c3cccc(CN4CCC(CO)CC4)c3)sc3c2CCCC3)cc1 [Compound 644, 3-(4-Hydroxymethyl-piperidin-1-ylmethyl)-N-[3-(4-methoxy-benzylidene-hydrazinocarbonyl)-4,5,6,7-tetrahydro-benzo-[b]thiophen-2-yl]-benzamide]",5.91
24,"Cc1ccc(CNNC(=O)c2c(C)csc2NC(=O)c2cccc(CSCCCO)c2)cc1C [Compound 645, N-{3-[N′-(3,4-Dimethyl-benzyl)-hydrazinocarbonyl]-4-methyl-thiophen-2-yl}-3-(3-hydroxy-propylsulfanylmethyl)-benzamide]",< 3
